{"source": "patent US10912815B2", "about": "“Inhibitors of mitochondrial fission and methods of use thereof” (The Board of Trustees of the Leland Stanford Junior …, priority 2011, dated 2021)", "key": {"Drp1 Ser616": {"system": "Drp1 Ser616", "experiment": "Drp1 Ser616 phosphorylation in SH-SY5Y cells", "format": "cell-based, human", "protocol": "(§1) Cultured human SH-SY5Y neuronal cells were treated with peptide P110 (1 μM) for 30 min prior to 1 hr incubation in the absence or presence of MPP+(1-methyl-4-phenylpyridinium, a specific mitochondrial complex I inhibitor) (2 mM) or CCCP (carbonyl cyanide m-chloro phenyl hydrazone) (10 μM). Western blot analysis of mitochondrial fractions was determined by the indicated antibodies. VDAC was used as a loading control.\nThe function of Drp1 is regulated at least in part by phosphorylation events."}, "OPA1": {"biological_target": "T1, OPA1 (Homo sapiens, UniProt O60313)", "T1 sequence (O60313 88-960)": "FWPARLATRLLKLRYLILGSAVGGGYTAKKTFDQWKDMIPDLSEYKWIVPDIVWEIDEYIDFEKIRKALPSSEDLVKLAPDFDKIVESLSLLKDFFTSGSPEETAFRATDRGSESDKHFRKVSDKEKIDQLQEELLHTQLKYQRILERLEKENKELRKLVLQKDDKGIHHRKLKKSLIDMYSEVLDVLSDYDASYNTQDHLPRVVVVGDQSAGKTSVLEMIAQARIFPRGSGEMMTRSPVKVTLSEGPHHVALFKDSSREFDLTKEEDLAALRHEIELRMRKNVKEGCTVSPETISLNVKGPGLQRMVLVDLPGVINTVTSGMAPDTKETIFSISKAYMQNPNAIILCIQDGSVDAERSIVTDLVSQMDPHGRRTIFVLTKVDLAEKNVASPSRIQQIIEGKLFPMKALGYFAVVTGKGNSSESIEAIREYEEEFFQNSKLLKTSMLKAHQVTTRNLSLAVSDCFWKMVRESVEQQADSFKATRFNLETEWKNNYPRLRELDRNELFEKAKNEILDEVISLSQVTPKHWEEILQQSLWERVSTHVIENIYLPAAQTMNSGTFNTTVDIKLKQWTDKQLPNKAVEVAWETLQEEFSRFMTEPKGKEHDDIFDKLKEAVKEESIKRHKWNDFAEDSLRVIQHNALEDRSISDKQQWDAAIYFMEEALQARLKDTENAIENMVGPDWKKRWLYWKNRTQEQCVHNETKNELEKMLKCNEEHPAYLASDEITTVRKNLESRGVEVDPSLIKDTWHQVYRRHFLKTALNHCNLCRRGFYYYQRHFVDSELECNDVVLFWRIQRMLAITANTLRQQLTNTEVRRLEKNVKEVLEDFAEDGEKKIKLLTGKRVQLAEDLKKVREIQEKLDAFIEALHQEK", "experiment": "In vitro GTPase assay, recombinant OPA1", "format": "biochemical", "settings": "recombinant OPA1 25 ng, FIG. 2B", "protocol": "(§2) First, mitochondrial fission inhibitor constructs were tested to determine what, if any, effects each peptide had on enzyme (GTPase) activity. Recombinant protein Drp1, Mfn1, OPA1 or dynamin-1 (25 ng) was incubated with the indicated modulator peptides for 30 min. GTPase activity was assayed in vitro using a GTPase assay kit (Innova Biosciences, Littleton, USA, or Novus Biologicals, Littleton, Colo.) according to manufacturer's instructions."}, "Recombinant protein Drp1": {"biological_target": "Recombinant protein Drp1 (Homo sapiens, UniProt O00429)", "sequence (O00429 1-710 isoform O00429-3)": "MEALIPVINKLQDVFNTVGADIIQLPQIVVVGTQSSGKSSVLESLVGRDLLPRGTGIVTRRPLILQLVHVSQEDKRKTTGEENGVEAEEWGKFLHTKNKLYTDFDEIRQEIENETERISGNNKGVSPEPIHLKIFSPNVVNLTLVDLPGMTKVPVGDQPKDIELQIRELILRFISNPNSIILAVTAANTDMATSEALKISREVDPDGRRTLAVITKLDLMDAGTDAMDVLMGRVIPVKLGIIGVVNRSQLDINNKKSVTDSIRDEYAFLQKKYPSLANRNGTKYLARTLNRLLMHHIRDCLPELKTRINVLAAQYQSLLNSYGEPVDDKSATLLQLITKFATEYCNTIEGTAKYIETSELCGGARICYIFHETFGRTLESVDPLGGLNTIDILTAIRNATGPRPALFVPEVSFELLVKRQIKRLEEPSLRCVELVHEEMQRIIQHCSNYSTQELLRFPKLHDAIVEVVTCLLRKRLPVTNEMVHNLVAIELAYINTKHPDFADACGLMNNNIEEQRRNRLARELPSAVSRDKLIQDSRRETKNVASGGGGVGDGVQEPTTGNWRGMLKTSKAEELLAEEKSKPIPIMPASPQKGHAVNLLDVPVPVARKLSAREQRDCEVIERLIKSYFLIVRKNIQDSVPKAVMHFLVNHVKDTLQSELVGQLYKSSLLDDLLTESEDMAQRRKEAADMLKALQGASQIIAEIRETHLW", "experiment": "In vitro GTPase assay, recombinant Drp1", "format": "biochemical", "protocol": "as §2"}, "[1]": {"system": "Primary rat dopaminergic neurons", "experiment": "Mitochondrial fragmentation in primary dopaminergic neurons exposed to MPP+", "format": "cell-based", "settings": "P110 1 μM, MPP+ 1 μM, 15 hrs, FIG. 10B", "protocol": "Primary rat dopaminergic neurons (cultured for 6 days) were treated without or with P110 (1 μM) followed by treatment with or without MPP+(1 μM). Two hrs following MPP+ treatment, the cells were stained with MITOSOX™ red (to measure mitochondrial superoxide production) and anti-TH antibody (a marker of dopaminergic neurons). Fifteen hrs after MPP+ treatment, cells were stained with anti-TH antibody and anti-Tom20 antibody (a marker of mitochondria)."}, "dynamin-1": {"biological_target": "T2, dynamin-1 (Homo sapiens, UniProt Q05193)", "T2 sequence (Q05193 1-864)": "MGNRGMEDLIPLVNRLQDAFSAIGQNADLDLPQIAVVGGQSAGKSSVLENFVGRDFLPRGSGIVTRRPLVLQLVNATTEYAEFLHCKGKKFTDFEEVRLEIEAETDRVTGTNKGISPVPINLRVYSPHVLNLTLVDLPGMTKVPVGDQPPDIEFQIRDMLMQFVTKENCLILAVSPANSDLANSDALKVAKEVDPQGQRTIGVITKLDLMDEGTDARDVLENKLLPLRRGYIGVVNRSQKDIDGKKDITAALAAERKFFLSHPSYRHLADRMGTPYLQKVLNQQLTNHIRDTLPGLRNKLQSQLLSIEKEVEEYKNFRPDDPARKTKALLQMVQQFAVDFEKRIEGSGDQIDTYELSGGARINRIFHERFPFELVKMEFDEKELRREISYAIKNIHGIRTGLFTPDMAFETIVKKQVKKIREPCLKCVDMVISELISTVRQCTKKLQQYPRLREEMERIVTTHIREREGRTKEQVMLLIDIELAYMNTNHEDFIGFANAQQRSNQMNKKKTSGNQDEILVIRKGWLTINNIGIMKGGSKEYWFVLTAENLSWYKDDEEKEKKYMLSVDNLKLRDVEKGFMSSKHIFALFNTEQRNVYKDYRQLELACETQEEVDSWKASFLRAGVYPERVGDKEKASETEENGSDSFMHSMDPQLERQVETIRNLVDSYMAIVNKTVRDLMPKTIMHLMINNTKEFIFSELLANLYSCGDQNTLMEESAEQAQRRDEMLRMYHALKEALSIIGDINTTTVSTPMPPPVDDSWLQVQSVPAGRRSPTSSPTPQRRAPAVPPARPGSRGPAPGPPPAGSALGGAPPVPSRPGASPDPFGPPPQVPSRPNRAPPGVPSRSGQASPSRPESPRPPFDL", "experiment": "In vitro GTPase assay, recombinant dynamin-1", "format": "biochemical", "settings": "recombinant dynamin-1 25 ng, FIG. 2B", "protocol": "as §2"}, "Drp1": {"system": "Drp1", "experiment": "Drp1 translocation to mitochondria in SH-SY5Y cells (western blot of mitochondrial fractions)", "format": "cell-based, human", "protocol": "as §1\nIn another experiment, mitochondria were isolated from SH-SY5Y neuronal cells exposed to MPP+ in the absence or presence of P110. Mitochondrial fractions were subjected to Western blot analysis. The levels of Drp1, Fis1, Mff, Mfn1 (mitofisinl) and OPA1 in the mitochondrial fractions were determined. Voltage-dependent […] (VDAC), a marker of mitochondria, was used as internal loading controls. Quantitative data from three independent experiments are provided a the histogram, with data shown as mean±S.E (FIG. 3D)."}}, "note": "No end group written: not given here.", "data": [{"sequence": "RRRQRRKKRGYGGDLLPRGS (RRRQRRKKRGYGGDLLPRGS-NH2) [P110, TAT47-57 carrier, GG linker, Drp1 region 110 (GTPase domain) peptide DLLPRGS; C-terminus C(O)-NH2]", "values": [{"measurement": "Drp1 Ser616 phosphorylation", "setting": "Drp1 Ser616; SH-SY5Y exposed to MPP+ or CCCP, FIG. 3F", "result": "abolished Ser616 phosphorylation"}, {"measurement": "Drp1 levels and phosphorylation under normal conditions", "setting": "Drp1 Ser616; SH-SY5Y, no stressor", "result": "did not affect"}, {"measurement": "effect on GTPase activity of OPA1", "setting": "OPA1", "result": "no effects"}, {"measurement": "specifically inhibited Drp1 GTPase activity", "setting": "Recombinant protein Drp1; in vitro GTPase assay, n=3, first statement of b271", "result": 30, "unit": "%"}, {"measurement": "inhibition in the GTPase activity of recombinant Drp1", "setting": "Recombinant protein Drp1; recombinant Drp1 25 ng, 30 min incubation with peptide, FIG. 2A", "result": 50, "unit": "%"}, {"measurement": "mitochondrial fragmentation", "setting": "[1]", "result": "reduced mitochondrial fragmentation"}, {"measurement": "effect on GTPase activity of dynamin-1", "setting": "dynamin-1", "result": "no effects"}, {"measurement": "levels of Drp1 associated with the mitochondrial fractions under stress", "setting": "Drp1; P110 1 μM 30 min before MPP+, CCCP, H2O2 or rotenone, FIG. 3A, 3B", "result": "abolished the increased levels of Drp1"}, {"measurement": "cellular level and distribution of other mitochondrial dynamics-related proteins (MFN-1/2, OPA1, Fis1)", "setting": "Drp1; SH-SY5Y, MPP+, FIG. 3C, 3D", "result": "did not affect"}, {"measurement": "reduction of MPP+-induced translocation of Drp1 from cytosol to the mitochondria", "setting": "Drp1; SH-SY5Y, MPP+, p<0.01, n=3, FIG. 3C, 3D", "result": "more than 60%"}]}]}
